For series [1], the target named is T1, Dolichol-phosphate-mannose synthase (Trypanosoma brucei brucei) (UniProt Q5QQ41).
T1 sequence (whole entry): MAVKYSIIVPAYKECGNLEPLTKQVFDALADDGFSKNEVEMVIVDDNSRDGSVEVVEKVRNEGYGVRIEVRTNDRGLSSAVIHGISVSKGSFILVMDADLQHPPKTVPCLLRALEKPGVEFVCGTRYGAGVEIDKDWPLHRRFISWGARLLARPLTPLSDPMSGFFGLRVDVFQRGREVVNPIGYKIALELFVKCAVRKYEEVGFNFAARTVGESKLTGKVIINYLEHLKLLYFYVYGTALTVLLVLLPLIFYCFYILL
As to conditions: 1 mM.

In general, inhibition refers to the drop in the measured response relative to a control, in per cent. Read a high inhibition as a response far below the control. Usually Km stands for the substrate concentration at which the rate is half of its maximum.

4-aminobutyrate aminotransferase, mitochondrial (Homo sapiens), P80404, sequence (P80404 whole entry): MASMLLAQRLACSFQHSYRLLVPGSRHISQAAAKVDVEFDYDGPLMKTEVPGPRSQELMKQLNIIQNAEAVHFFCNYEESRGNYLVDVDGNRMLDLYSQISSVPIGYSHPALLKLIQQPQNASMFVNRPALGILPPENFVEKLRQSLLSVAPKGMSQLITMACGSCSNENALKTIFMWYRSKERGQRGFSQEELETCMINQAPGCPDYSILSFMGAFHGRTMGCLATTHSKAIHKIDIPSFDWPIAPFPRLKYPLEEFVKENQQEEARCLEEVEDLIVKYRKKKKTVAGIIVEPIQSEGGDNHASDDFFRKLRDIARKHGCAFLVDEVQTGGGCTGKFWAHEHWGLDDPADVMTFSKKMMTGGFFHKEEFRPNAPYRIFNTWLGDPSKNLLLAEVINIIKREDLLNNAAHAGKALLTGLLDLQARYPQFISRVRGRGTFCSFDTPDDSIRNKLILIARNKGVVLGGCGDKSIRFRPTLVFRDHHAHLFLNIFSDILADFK

Take `Nc1nc2c(ncn2[C@@H]2O[C@H](CNc3c(NCc4ccccc4C(=O)O)c(=O)c3=O)[C@@H](O)[C@H]2O)c(=O)[nH]1`: the inhibition in series [1] worked out at 64%.
For the compound `Nc1nc2c(ncn2[C@@H]2O[C@H](COP(=O)(O)OP(=O)(O)O)[C@@H](O)[C@H]2O)c(=O)[nH]1`, the inhibition in series [1] was found to be 8.5%.
On to “4-aminobutyrate aminotransferase, mitochondrial (Homo sapiens), P80404”, for which the Km with NCCCC(=O)O amounted to 2500 µM.

Values taken from ChEMBL document CHEMBL2203023, “Synopsis of some recent tactical application of bioisosteres in drug design” (J Med Chem, 2011).
